Experimental data taken from PubChem BioAssay AID330 (DTP/NCI, 2004).
Several values for one entry are separate records, joined by “and”; a condition that tells them apart may be missing. Equal entries are not always repeated. Inconclusive results and toxic doses are left out.

Tested on: P388 leukemia ip, CD2F1 mice, survival T/C
Assay: NCI In Vivo Anticancer Drug Screen. Data for tumor model P388 Leukemia (intraperitoneal) in CD2F1 (CDF1) mice
Conditions: endpoint: median survival time, higher = longer survival
Procedure, shortened: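 Mice carrying the transplanted tumor received test compound or vehicle. Survival was recorded in each group, and the value is the treated-group measurement divided by that of the vehicle-treated control group.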

[1] = dose: 50.0 mg/kg/injection, schedule: Q01DX005 (ip), vehicle: Klucel (hydroxypropylcellulose) (HPC)
[2] = dose: 100.0 mg/kg/injection, schedule: Q01DX005 (ip), vehicle: Klucel (hydroxypropylcellulose) (HPC)
[3] = dose: 12.5 mg/kg/injection, schedule: Q01DX009 (ip), vehicle: saline with Tween-80
[4] = dose: 25.0 mg/kg/injection, schedule: Q01DX009 (ip), vehicle: saline with Tween-80
[5] = dose: 50.0 mg/kg/injection, schedule: Q01DX009 (ip), vehicle: saline with Tween-80
[6] = dose: 50.0 mg/kg/injection, schedule: Q01DX005 (ip), vehicle: saline
[7] = dose: 100.0 mg/kg/injection, schedule: Q01DX005 (ip), vehicle: saline
[8] = dose: 200.0 mg/kg/injection, schedule: Q01DX005 (ip), vehicle: saline
[9] = dose: 50.0 mg/kg/injection, schedule: Q01DX005 (ip), vehicle: saline with Tween-80
[10] = dose: 50.0 mg/kg/injection, schedule: Q01DX009 (ip), vehicle: saline

N#CC1CCCC(C#N)N1CN1C(C#N)CCCC1C#N (stereo unspecified)
T/C [1]: 97 % of control
T/C [2]: 88 % of control

C=Cc1ccccc1-c1ccccc1C(=O)OC
T/C (dose: 25.0 mg/kg/injection, schedule: Q04DX003 (ip), vehicle: saline with Tween-80): 100 % of control
T/C (dose: 50.0 mg/kg/injection, schedule: Q04DX003 (ip), vehicle: saline with Tween-80): 101 % of control
T/C (dose: 100.0 mg/kg/injection, schedule: Q04DX003 (ip), vehicle: saline with Tween-80): 99 % of control

COC(=O)c1[c]([Sn]([CH3])([CH3])[CH3])n[n]([Pb]([CH3])([CH3])[CH3])c1C(=O)OC
T/C (dose: 6.25 mg/kg/injection, schedule: Q04DX003 (ip), vehicle: saline): 95 % of control
T/C (dose: 12.5 mg/kg/injection, schedule: Q04DX003 (ip), vehicle: saline): 95 % of control
T/C (dose: 25.0 mg/kg/injection, schedule: Q04DX003 (ip), vehicle: saline): 95 % of control

O=c1[nH]nc(-c2ccccc2)c2nc3ccccc3n12
T/C (dose: 60.0 mg/kg/injection, schedule: Q01DX005 (ip), vehicle: Klucel (hydroxypropylcellulose) (HPC)): 88 % of control
T/C (dose: 120.0 mg/kg/injection, schedule: Q01DX005 (ip), vehicle: Klucel (hydroxypropylcellulose) (HPC)): 87 % of control
T/C (dose: 240.0 mg/kg/injection, schedule: Q01DX005 (ip), vehicle: Klucel (hydroxypropylcellulose) (HPC)): 88 % of control

CN(C)[C](=[Au][Cl])c1ccccc1
T/C (dose: 25.0 mg/kg/injection, schedule: Q04DX002 (ip), vehicle: Klucel (hydroxypropylcellulose) (HPC)): 109 % of control
T/C (dose: 50.0 mg/kg/injection, schedule: Q04DX002 (ip), vehicle: Klucel (hydroxypropylcellulose) (HPC)): 111 % of control
T/C (dose: 100.0 mg/kg/injection, schedule: Q04DX002 (ip), vehicle: Klucel (hydroxypropylcellulose) (HPC)): 108 % of control and 96 % of control

CN(C)c1cc(N(C)C)c2cc(C#N)ccc2n1
T/C (dose: 50.0 mg/kg/injection, schedule: Q01DX009 (ip), vehicle: Klucel (hydroxypropylcellulose) (HPC)): 99 % of control
T/C (dose: 100.0 mg/kg/injection, schedule: Q01DX009 (ip), vehicle: Klucel (hydroxypropylcellulose) (HPC)): 98 % of control
T/C (dose: 200.0 mg/kg/injection, schedule: Q01DX009 (ip), vehicle: Klucel (hydroxypropylcellulose) (HPC)): 107 % of control

CC(=O)Nc1nc(CC(N)C(=O)O)c[se]1 (stereo unspecified)
T/C [1]: 97 % of control
T/C [2]: 97 % of control
T/C (dose: 200.0 mg/kg/injection, schedule: Q01DX005 (ip), vehicle: Klucel (hydroxypropylcellulose) (HPC)): 97 % of control

Oc1cccc2ccccc12
T/C (dose: 25.0 mg/kg/injection, schedule: Q01DX005 (ip), vehicle: water): 100 % of control
T/C (dose: 50.0 mg/kg/injection, schedule: Q01DX005 (ip), vehicle: water): 101 % of control
T/C (dose: 100.0 mg/kg/injection, schedule: Q01DX005 (ip), vehicle: water): 111 % of control
T/C (dose: 200.0 mg/kg/injection, schedule: Q01DX005 (ip), vehicle: water): 104 % of control
T/C (dose: 400.0 mg/kg/injection, schedule: Q01DX005 (ip), vehicle: water): 93 % of control

CCc1ccc(NC2=NCCO2)cc1
T/C [3]: 100 % of control
T/C [4]: 105 % of control
T/C [5]: 100 % of control

COc1ccc(Br)c(C(=O)O)c1OS(=O)(=O)c1ccc(C)cc1
T/C (dose: 25.0 mg/kg/injection, schedule: Q01DX009 (ip), vehicle: other): 106 % of control
T/C (dose: 50.0 mg/kg/injection, schedule: Q01DX009 (ip), vehicle: other): 105 % of control
T/C (dose: 100.0 mg/kg/injection, schedule: Q01DX009 (ip), vehicle: other): 100 % of control
T/C (dose: 200.0 mg/kg/injection, schedule: Q01DX009 (ip), vehicle: other): 105 % of control
T/C (dose: 400.0 mg/kg/injection, schedule: Q01DX009 (ip), vehicle: other): 108 % of control

C=C(C)[C@@]12OC3(/C=C/C=C/CCCCC)O[C@@H]1[C@@H]1[C@@H]4O[C@]4(CO)[C@@H](O)[C@]4(O)C(=O)C(C)=C[C@H]4[C@@]1(O3)[C@H](C)[C@H]2OC(=O)c1ccccc1
T/C (dose: 0.1 mg/kg/injection, schedule: Q01DX009 (ip), vehicle: saline + alcohol): 120 % of control
T/C (dose: 1.6 mg/kg/injection, schedule: Q01DX009 (ip), vehicle: saline + alcohol): 155 % of control
T/C (dose: 0.8 micrograms/kg/injection, schedule: Q01DX009 (ip), vehicle: saline + alcohol): 101 % of control
T/C (dose: 1.6 micrograms/kg/injection, schedule: Q01DX009 (ip), vehicle: saline + alcohol): 101 % of control
T/C (dose: 2.3 micrograms/kg/injection, schedule: Q01DX009 (ip), vehicle: saline + alcohol): 97 % of control
T/C (dose: 3.1 micrograms/kg/injection, schedule: Q01DX009 (ip), vehicle: saline + alcohol): 119 % of control
T/C (dose: 4.7 micrograms/kg/injection, schedule: Q01DX009 (ip), vehicle: saline + alcohol): 100 % of control
T/C (dose: 9.4 micrograms/kg/injection, schedule: Q01DX009 (ip), vehicle: saline + alcohol): 97 % of control
T/C (dose: 18.8 micrograms/kg/injection, schedule: Q01DX009 (ip), vehicle: saline + alcohol): 95 % of control
T/C (dose: 37.5 micrograms/kg/injection, schedule: Q01DX009 (ip), vehicle: saline + alcohol): 100 % of control
T/C (dose: 75.0 micrograms/kg/injection, schedule: Q01DX009 (ip), vehicle: saline + alcohol): 119 % of control
T/C (dose: 150.0 micrograms/kg/injection, schedule: Q01DX009 (ip), vehicle: saline + alcohol): 114 % of control

C=CC(=O)OCC(C)(C)C
T/C [6]: 99 % of control
T/C [7]: 98 % of control
T/C [8]: 116 % of control

CCCCCCCCOC(=O)c1ccc(O)cc1
T/C [3]: 99 % of control
T/C [4]: 100 % of control
T/C [5]: 99 % of control and 96 % of control
T/C (dose: 100.0 mg/kg/injection, schedule: Q01DX009 (ip), vehicle: saline with Tween-80): 92 % of control

CC(O)CN1C(=O)c2cccc3cc([N+](=O)[O-])cc(c23)C1=O (stereo unspecified)
T/C [9]: 96 % of control
T/C (dose: 100.0 mg/kg/injection, schedule: Q01DX005 (ip), vehicle: saline with Tween-80): 104 % of control
T/C (dose: 200.0 mg/kg/injection, schedule: Q01DX005 (ip), vehicle: saline with Tween-80): 104 % of control

CCC(c1ccc(OC)cc1)C(NC(=S)Nc1cccc(C)c1)c1ccc(OC)cc1 (stereo unspecified)
T/C (dose: 100.0 mg/kg/injection, schedule: Q01DX001 (ip), vehicle: saline with Tween-80): 90 % of control
T/C (dose: 200.0 mg/kg/injection, schedule: Q01DX001 (ip), vehicle: saline with Tween-80): 92 % of control
T/C (dose: 400.0 mg/kg/injection, schedule: Q01DX001 (ip), vehicle: saline with Tween-80): 93 % of control

Nc1nc2nc[nH]c(=O)c2[nH]1
T/C (dose: 6.25 mg/kg/injection, schedule: Q01DX005 (ip), vehicle: saline with Tween-80): 99 % of control
T/C (dose: 12.5 mg/kg/injection, schedule: Q01DX005 (ip), vehicle: saline with Tween-80): 99 % of control
T/C (dose: 25.0 mg/kg/injection, schedule: Q01DX005 (ip), vehicle: saline with Tween-80): 102 % of control and 106 % of control
T/C [9]: 102 % of control

CCOc1c(N=Nc2cccc(Cl)c2)c(C)nn1C(N)=S
T/C (dose: 60.0 mg/kg/injection, schedule: Q01DX005 (ip), vehicle: Klucel + Tween-80): 102 % of control
T/C (dose: 120.0 mg/kg/injection, schedule: Q01DX005 (ip), vehicle: Klucel + Tween-80): 93 % of control
T/C (dose: 240.0 mg/kg/injection, schedule: Q01DX005 (ip), vehicle: Klucel + Tween-80): 95 % of control

C=C(C)C(=O)NC(Cc1cnc[nH]1)C(=O)O (stereo unspecified)
T/C [10]: 106 % of control
T/C (dose: 100.0 mg/kg/injection, schedule: Q01DX009 (ip), vehicle: saline): 107 % of control
T/C (dose: 200.0 mg/kg/injection, schedule: Q01DX009 (ip), vehicle: saline): 107 % of control

O=C(Nc1ccc(NC(=O)c2ccc(C3=NCCCN3)cc2)cc1)c1ccc(C2=NCCCN2)cc1
T/C (dose: 12.5 mg/kg/injection, schedule: Q01DX009 (ip), vehicle: saline): 168 % of control
T/C (dose: 12.5 mg/kg/injection, schedule: Q04DX003 (ip), vehicle: saline with Tween-80): 118 % of control
T/C (dose: 25.0 mg/kg/injection, schedule: Q01DX009 (ip), vehicle: saline): 250 % of control
T/C [10]: 163 % of control

CC(=O)NC1C(NNC(=O)c2ccncc2)OC(CO)C(O)C1O (stereo unspecified)
T/C [6]: 100 % of control
T/C [7]: 96 % of control
T/C [8]: 104 % of control

CCN(CC)CCNc1ccc(COC(=O)Nc2ccccc2)c2sc3ccccc3c(=O)c12
T/C (dose: 6.25 mg/kg/injection, schedule: Q01DX005 (ip), vehicle: Klucel + Tween-80): 111 % of control
